We go through 4 molecules from patent US20210228660A1, “USE OF PROTEASOME INHIBITOR AND […] PREPARATION OF ANTI-TUMOR MEDICAMENT” (GUANGZHOU VIROTECH PHARMACEUTICAL CO., LTD., priority 2018, published 2021).

What all share (type): cell-based
Data set [1] relates to human hepatocellular carcinoma Hep3B. Briefly: Cell morphology observation under phase contrast microscope, Hep3B. The conditions noted are these: 48 h, Bortezomib 5 nM, M1 virus 0.001 moi, FIG. 1. As to the method:
(§1) a) Cell culture: human hepatocellular carcinoma Hep3B and Huh 7 were grown in DMEM complete medium containing 10% FBS, 100 U/ml penicillin and 0.1 mg/ml streptomycin; all cell strains were cultured and passaged in a closed incubator at a constant temperature of 37° C. (95% relative humidity) with 5% CO2, and the growth was observed under inverted microscope. The cells were passaged about every 2 to 3 days, and the cells in the logarithmic phase were used in the formal experiment.
(§2) b) Cell treatment and morphological observation: cells in the logarithmic growth phase and the DMEM complete culture medium (containing 10% fetal bovine serum and 1% double antibody) were selected to prepare cell suspension, and the cells were inoculated in a 24-well culture plate at a density of 2.5×10^4/well.

Data set [2] has as its system human hepatocellular carcinoma Huh 7. The data set is described as follows: Cell morphology observation under phase contrast microscope, Huh 7. Conditions: 48 h, Bortezomib 5 nM, M1 virus 0.1 moi, FIG. 1. As to the method: as §1, §2
For data set [3] the test system is unchanged. The data set is described as follows: MTT cell viability, Bortezomib and M1 virus, 48 h. Conditions: Huh-7, 48 h, read-out: relative cell viability of tumor cells. As to the method: a) Inoculating cells, and drug administering treatment: cells in the logarithmic growth phase and the DMEM complete culture medium (containing 10% fetal bovine serum and 1% double antibody) were selected to prepare cell suspension, and were inoculated in a 96-well culture plate at a density of 4×10^3/well. 12 h later, the cells were completely adhered to the wall. The cells were divided into control group without medicament nor virus treatment, Bortezomib treatment group, M1 infection group and Bortezomib/M1 combined group.
b) MTT reacted with intracellular succinate dehydrogenase: after culturing for 48 h, 20 μl (5 mg/ml) of MTT was added to each well and incubated for 4 h, at this time, the granular bluish violet formazan crystals formed in living cells could be observed under microscope.
c) Dissolving formazan granules: the supernatant was carefully removed, DMSO 100 μl/well was added to dissolve the crystal, shaked in a microoscillator for 5 min, and then detect the optical density (OD value) of each well with wavelength of 570 nm on the enzyme-linked detector. The experiment was repeated for 3 times in each group. Cell viability=OD value of medicament treatment group/OD value of control group×100%.
The EC50 shift of the two curves was calculated, that is, the EC50 shift in FIG. 2, the larger the difference value was, the more significant the medicament synergized.

The test system is the same in data set [4]. Briefly: MTT cell viability, various proteasome inhibitors and M1 virus, 72 h. The method, then:
a) Inoculating cells, and drug administering treatment: cells in the logarithmic growth phase and the DMEM complete culture medium (containing 10% fetal bovine serum and 1% double antibody) were selected to prepare cell suspension, and were inoculated in a 96-well culture plate at a density of 4×10^3/well. 12 h later, the cells were completely adhered to the wall. The cells were divided into control group without medicament nor virus treatment, proteasome inhibitor group (including CEP-18770, MLN-9708, ONX-0912), M1 infected group and proteasome inhibitor/M1 combined group.
b) MTT reacted with intracellular succinate dehydrogenase: after culturing for 72 h, 20 μl (5 mg/ml) of MTT was added to each well and incubated for 4 h, at this time, the granular bluish violet formazan crystals formed in living cells could be observed under microscope.
c) Dissolving formazan granules: the supernatant was carefully removed, DMSO 100 μl/well was added to dissolve the crystal, vibrate in a microoscillator for 5 min, and then detect the optical density (OD value) of each well with wavelength of 570 nm on the enzyme-linked detector. Cell viability=OD value of medicament treatment group/OD value of control group x 100%.

[5] abbreviates: Homo sapiens, Huh-7, 72 h, read-out: relative cell viability of tumor cells.

Take `CC(C)C[C@H](NC(=O)[C@H](Cc1ccccc1)NC(=O)c1cnccn1)B(O)O` [Bortezomib]: the “morphological changes of cells” value in data set [1] and in data set [2] was “no significant change in cell morphology” each time. Besides, the viability at 0.005 µM in data set [3] was found to be 99.7%.

With `CC(C)C[C@H](NC(=O)[C@@H](NC(=O)c1cccc(-c2ccccc2)n1)[C@@H](C)O)B(O)O` [CEP-18770, Delanzomib], in data set [4] (setting [5]), the viability at 0.005 µM was found to be 105%.

As to `COC[C@H](NC(=O)c1cnc(C)s1)C(=O)N[C@@H](COC)C(=O)N[C@@H](Cc1ccccc1)C(=O)[C@@]1(C)CO1` [ONX-0912, Oprozomib], the viability at 0.05 µM in data set [4] (setting [5]) is 70%.

Turning to Ixazomib [MLN-9708], the “relative cell viability of tumor cells” value in data set [4] (FIG. 4B, Huh 7, MTT, 72 h, MLN-9708 5 nM, M1 virus MOI=0.1) came to 77.7%.

As a reminder, the viability is a read-out of living cells in per cent, often relative to untreated cells.
